Data reported in patent US8551988B2, “Benzimidazole derivatives: preparation and pharmaceutical applications” (Mei Pharma, Inc., priority 2003, dated 2013).
pIC50: −log10 of the molar value. Like-named read-outs stand apart in the source and are kept apart here.

Experiments:
[1] = target: HDAC8 enzyme (recombinant GST-HDAC8) (Homo sapiens (Human), UniProt Q9BY41); assay: In vitro HDAC assay (BIOMOL fluorescent-based HDAC activity assay), HDAC8; type: biochemical
Experimental: (§1) The assay has been carried out in 96 well format and the BIOMOL fluorescent-based HDAC activity assay has been applied. […] Flur de lys Developer was added and the reaction was incubated for 10 min. Briefly, deacetylation of the substrate sensitizes it to the developer, which then generates a fluorophore (symbol). The fluorophore is excited with 360 nm light and the emitted light (460 nm) is detected on a fluorometric plate reader (Tecan Ultra Microplate detection system, Tecan Group Ltd.).
(§2) The analytical software, Prism 3.0 has been used to generate IC50 from a series of data.

[2] = target: HDAC1 enzyme (recombinant GST-HDAC1) (Homo sapiens (Human), UniProt Q13547); assay: In vitro HDAC assay (BIOMOL fluorescent-based HDAC activity assay), HDAC1; type: biochemical
Experimental: as §1, §2

[3] = read-out: HDAC8 Enzyme Activity IC50
[4] = read-out: HDAC1 Enzyme Activity IC50

Sequence of HDAC8 enzyme (recombinant GST-HDAC8) (Q9BY41 whole entry): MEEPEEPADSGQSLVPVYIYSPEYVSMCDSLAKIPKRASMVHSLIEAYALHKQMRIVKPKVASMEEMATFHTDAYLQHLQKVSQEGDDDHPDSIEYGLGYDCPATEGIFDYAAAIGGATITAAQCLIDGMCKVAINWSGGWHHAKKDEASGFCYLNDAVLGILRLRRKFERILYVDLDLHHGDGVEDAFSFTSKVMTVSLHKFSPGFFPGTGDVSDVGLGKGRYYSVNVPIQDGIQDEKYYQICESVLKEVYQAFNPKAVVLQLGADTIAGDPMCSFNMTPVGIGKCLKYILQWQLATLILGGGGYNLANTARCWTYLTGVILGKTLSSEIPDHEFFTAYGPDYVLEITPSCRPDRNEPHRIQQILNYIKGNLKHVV
Sequence of HDAC1 enzyme (recombinant GST-HDAC1) (Q13547 whole entry): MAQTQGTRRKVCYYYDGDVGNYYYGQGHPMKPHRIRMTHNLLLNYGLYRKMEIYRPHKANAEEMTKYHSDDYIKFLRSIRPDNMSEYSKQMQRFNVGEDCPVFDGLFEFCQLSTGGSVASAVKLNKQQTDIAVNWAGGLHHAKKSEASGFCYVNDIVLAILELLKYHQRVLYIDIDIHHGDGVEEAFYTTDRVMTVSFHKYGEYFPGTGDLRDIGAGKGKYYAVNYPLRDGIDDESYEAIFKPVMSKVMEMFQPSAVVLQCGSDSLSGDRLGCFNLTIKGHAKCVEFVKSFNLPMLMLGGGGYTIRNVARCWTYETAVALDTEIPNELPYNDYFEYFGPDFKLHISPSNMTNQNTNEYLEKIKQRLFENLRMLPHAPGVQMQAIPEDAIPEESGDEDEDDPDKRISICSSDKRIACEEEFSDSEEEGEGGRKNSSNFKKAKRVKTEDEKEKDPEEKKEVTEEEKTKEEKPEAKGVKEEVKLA

SMILES | pIC50 [1, 3] | pIC50 [2, 4] | pIC50 ([1]; Free base, read-out: IC50 (HDAC8)) | pIC50 ([2]; Free base, read-out: IC50 (HDAC1)) | pIC50 ([2]; Salt of HCl, read-out: IC50 (HDAC1)) | pIC50 ([2]; Salt of Methane sulfonic acid, read-out: IC50 (HDAC1))
O=C(/C=C/c1ccc2c(c1)nc(COCc1ccccc1)n2CCCO)NO [Compound 19] | 6.84 | 6.78 | – | – | – | –
CC(C)Cc1nc2cc(/C=C/C(=O)NO)ccc2n1Cc1ccccc1 [Compound 34, N-Hydroxy-3-(1-Benzyl-2-isobutyl-1H-benzimidazol-5-yl}-acrylamide] | 6.07 | 5.84 | – | – | – | –
O=C(/C=C/c1ccc2c(c1)nc(CCc1ccccc1)n2CCCN1CCCC1=O)NO [Compound 30, N-Hydroxy-3-{1-[3-(2-oxo-pyrrolidin-1-yl)-propyl]-2-phenethyl-1H-benzimidazol-5-yl}-acrylamide] | 6.14 | 6.71 | – | – | – | –
O=C(/C=C/c1ccc2c(c1)nc(CCc1ccccc1)n2Cc1ccccc1)NO [Compound 33, N-Hydroxy-3-(1-Benzyl-2-phenethyl-1H-benzimidazol-5-yl}-acrylamide] | 5.84 | 6.35 | – | – | – | –
O=C(/C=C/c1ccc2c(c1)ncn2Cc1ccccc1)NO [Compound 35, N-Hydroxy-3-(1-Benzyl-1H-benzimidazol-5-yl}-acrylamide] | 6.39 | 6.43 | – | – | – | –
CCCCCCCCc1nc2cc(/C=C/C(=O)NO)ccc2n1CCCO [Compound 23, N-Hydroxy-3-[1-(3-hydroxy-propyl)-2-octyl-1H-benzimidazol-5-yl]-acrylamide] | 6.40 | 6.28 | – | – | – | –
O=C(/C=C/c1ccc2c(c1)nc(CCc1ccccc1)n2CCCN1CCOCC1)NO [Compound 31, N-Hydroxy-3-[1-(3-morpholin-4-propyl]-2-phenethyl-1H-benzimidazol-5-yl}-acrylamide] | 5.96 | 6.61 | – | – | – | –
O=C(/C=C/c1ccc2c(c1)nc(CCc1ccccc1)n2Cc1cccnc1)NO [Compound 12, N-Hydroxy-3-[1-(3-pyridylmethyl)-2-(2-phenyl-ethyl)-1H-benzimidazol-5-yl]-acrylamide] | 6.69 | 6.88 | – | – | – | –
CN(C)CC(C)(C)Cn1c(CCc2ccccc2)nc2cc(/C=C/C(=O)NO)ccc21 [Compound 17, N-Hydroxy-3-[1-(3-Dimethylamino-2,2-dimethyl-propyl)-2-phenethyl-1H-benzimidazol-5-yl]-acrylamide] | – | – | 6.45 | 7.54 | 7.36 | 7.29
O=C(/C=C/c1ccc2c(c1)nc(CCc1ccccc1)n2Cc1ccccn1)NO [Compound 16, N-Hydroxy-3-(2-phenethyl-1-(pyridin-2-yl)methyl-1H-benzimidazol-5-yl)-acrylamide] | 6.44 | 6.71 | – | – | – | –
O=C(/C=C/c1ccc2c(c1)ncn2CCc1ccccn1)NO [Compound 42, N-Hydroxy-3-[1-(2-pyridin-2-yl-ethyl)-1H-benzimidazol-5-yl]-acrylamide] | 6.63 | 6.32 | – | – | – | –
COc1ccc(-c2nc3cc(/C=C/C(=O)NO)ccc3n2CCO)cc1 [Compound 5, N-Hydroxy-3-[1-(2-hydroxy-ethyl)-2-(4-methoxy-phenyl)-1H-benzimidazole-5-yl]-acrylamide] | 6.40 | 5.36 | – | – | – | –
O=C(/C=C/c1ccc2c(c1)nc(-c1ccccn1)n2CC(O)CO)NO (stereo not shown) [Compound 9, N-Hydroxy-3-[1-(2,3-hydroxy-propyl)-2-(2-pyridyl)-1H-benzimidazol-5-yl]-acrylamide] | 6.46 | 5.87 | – | – | – | –
